From PubChem BioAssay AID1963850 (Molecular Pharmacology Branch, DTP, NCI, 2024)
“And” between values parts separate entries of the source, which are not always exact repeats. Identical values can stand only once.

Test system: 192522-019-R-J2-PDC complex tumor spheroid viability
Assay: Anticancer human tumor 192522-019-R-J2-PDC patient-derived colon adenocarcinoma cell line growth inhibition [POLQ]
Details: for viability, T/C: stronger effect = lower value
Description: Multicellular complex tumor spheroid response to Polymerase (POL) inhibitors (novobiocin, ART-558, RP6685) in combination with a variety of drugs and investigational agents in selected tumor cell lines
The POL inhibitors (novobiocin, ART-558, and RP6685) were evaluated both individually and in combination with standard of care and investigational anticancer small molecules within a complex spheroid model of solid tumors. . Complex spheroids include a stromal component modeled by human endothelial cells (HUVEC) and fibroblasts modeled by human mesenchymal stem cells (MSCs). The concentration ranges selected for each drug and investigational agent were based upon clinically achievable concentrations if the clinical Cmax of the agent was known.
Compounds. The drugs and investigational agents: novobiocin (NSC847541), ART-558 (NSC835418), RP-6685 (NSC848927), peposertib (NSC802822), ceralasertib (NSC780249), elimusertib (NSC800525), camonsertib (NSC841442), AZD-1390 (NSC803789), olaparib (NSC753686), talazoparib (NSC767125), rucaparib (NSC756644), sotorasib (NSC818433), MRTX-1133 (NSC836407), SN-38 (NSC673596), topotecan (NSC609699), epotoside (NSC141540), doxorubicin (NSC123127), gemcitabine (NSC613327), 5-fluorouracil (NSC19893), paclitaxel (NSC125973), vemurafenib (NSC761431), MSA-2 (NSC828583), SN-011 (NSC837082), adavosertib (NSC754352), prexasertib (NSC758257), carboplatin (NSC241240) and oxaliplatin (NSC266046), were obtained from the National Cancer Institute (NCI) Developmental Therapeutics Program Chemical Repository (21). The FDA-approved anticancer drug set is available from the Developmental Therapeutics Program at https://dtp.cancer.gov/organization/dscb/obtaining/. […] The stock solutions were prepared in dimethyl sulfoxide (DMSO, Sigma-Aldrich, St. Louis, MO, cat. D2650), except for the platinum compounds which were prepared in saline (Quality Biological, Gaithersburg, MD, cat. 114-055-101), at 800-fold the tested concentration and stored at -70 degrees C prior to their use. All drugs and investigational agents were tested over a range starting from a high concentration at or near the clinical Cmax and decreasing in half-log increments. If the clinical Cmax for an agent had not been determined, the highest concentration tested was 10 microM, except for SN-38, which was tested at a high concentration of 1 microM.
Cell Culture. All cells were maintained in an incubator at 37 degrees C and 5% CO2 with 95% humidity. The PDC lines were cultured according to standard operating procedures established by the NCI PDMR (https://pdmr.cancer.gov). Table 3 of the manuscript, lists the cell lines along with the number of the three cell types plated to form the mct-spheroids and media for tumor cell growth. After thawing, all PDC lines, except 997537-175-T-J1-PDC and 415267-285-R-J2-PDC, were cultured in Matrigel-coated flasks prepared with a working solution of 1X Ham's F-12 nutrient mix, without supplementation (Thermo Fisher Scientific, cat. 11765054), 100 U/mL penicillin-streptomycin (Thermo Fisher Scientific, cat. 15140122), and 2.5% Matrigel (Corning Inc., Corning, NY, cat. 354248) for the first three passages. The two PDC lines 997537-175-T-J1-PDC and 415267-285-R-J2-PDC were cultured on uncoated flasks. The 857933-349-R-J2-PDC line was cultured in 6C/Colon 1B media containing advanced DMEM/F-12 (Thermo Fisher Scientific, cat. 12634028), 10 mM HEPES (Thermo Fisher Scientific, cat. 15630080), 1X GlutaMAX supplement (Thermo Fisher Scientific, cat. 35050061), 0.1 mg/mL primocin (InvivoGen, San Diego, CA, cat. ant-pm-2), 10% defined fetal bovine serum, heat inactivated (HyClone Laboratories Inc., Logan, UT, cat. SH30070.03HI), 50% L-WRN conditioned media (ATCC, cat. CRL-3276), 1.25 mM N-Acetyl-L-cysteine (Sigma-Aldrich, cat. A9165), 10 mM nicotinamide (Sigma-Aldrich, cat. N0636), 1X B-27 supplement (Thermo Fisher Scientific, cat. 17504044), 1X N-2 supplement (Thermo Fisher Scientific, cat. […]
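Also: spheroids exposed to drugs for seven days before reading.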
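For viability, T/C in this document: 100% = DMSO vehicle control viability in luminescence.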

Work on `COc1ccc([C@@H](O)c2cc(-c3ncnc4cc(N5CCOCC5)ccc34)c(F)cc2Cl)nn1` + Nc1ccc(C#CCN(C(=O)Cc2ncc(C(F)(F)F)cc2C(F)(F)F)c2ccc(F)cc2)nn1 yielded an IC50 (curve of first compound, second compound 0.0316 µM) of over 10 µM, an IC50 (curve of first compound, second compound 0.1 µM) of over 10 µM and an IC50 (curve of first compound, second compound 0.316 µM) of over 10 µM. The IC50 (curve of first compound, second compound 1 µM) was over 10 µM, the IC50 (curve of first compound, second compound 3.16 µM) was over 10 µM and the IC50 (curve of first compound, second compound 10 µM) was over 10 µM. It also gave a viability, T/C (second compound 0.0316 µM, first compound 0.0316 µM) of 116%, a viability, T/C (second compound 0.0316 µM, first compound 0.1 µM) of 97.3% and a viability, T/C (second compound 0.0316 µM, first compound 0.316 µM) of 93.7%. The viability, T/C (second compound 0.0316 µM, first compound 1 µM) was 85.8%, the viability, T/C (second compound 0.0316 µM, first compound 3.16 µM) was 75.8% and the viability, T/C (second compound 0.0316 µM, first compound 10 µM) was 55.4%. The viability, T/C (second compound 0.1 µM, first compound 0.0316 µM) was 106%, the viability, T/C (second compound 0.1 µM, first compound 0.1 µM) was 97.4% and the viability, T/C (second compound 0.1 µM, first compound 0.316 µM) was 98.7%. For the same compound, the viability, T/C (second compound 0.1 µM, first compound 1 µM) was 90.1%, the viability, T/C (second compound 0.1 µM, first compound 3.16 µM) was 86.2% and the viability, T/C (second compound 0.1 µM, first compound 10 µM) was 65.5%. It also gave a viability, T/C (second compound 0.316 µM, first compound 0.0316 µM) of 100%, a viability, T/C (second compound 0.316 µM, first compound 0.1 µM) of 101% and a viability, T/C (second compound 0.316 µM, first compound 0.316 µM) of 102%. It also gave a viability, T/C (second compound 0.316 µM, first compound 1 µM) of 102%, a viability, T/C (second compound 0.316 µM, first compound 3.16 µM) of 75.3% and a viability, T/C (second compound 0.316 µM, first compound 10 µM) of 59.9%. It also gave a viability, T/C (second compound 1 µM, first compound 0.0316 µM) of 102%, a viability, T/C (second compound 1 µM, first compound 0.1 µM) of 104% and a viability, T/C (second compound 1 µM, first compound 0.316 µM) of 98.1%. It also gave a viability, T/C (second compound 1 µM, first compound 1 µM) of 90.8%, a viability, T/C (second compound 1 µM, first compound 3.16 µM) of 93.2% and a viability, T/C (second compound 1 µM, first compound 10 µM) of 75%. For the same compound, the viability, T/C (second compound 3.16 µM, first compound 0.0316 µM) was 107%, the viability, T/C (second compound 3.16 µM, first compound 0.1 µM) was 101% and the viability, T/C (second compound 3.16 µM, first compound 0.316 µM) was 99%. It also gave a viability, T/C (second compound 3.16 µM, first compound 1 µM) of 93.6%, a viability, T/C (second compound 3.16 µM, first compound 3.16 µM) of 84.1% and a viability, T/C (second compound 3.16 µM, first compound 10 µM) of 65.9%. The viability, T/C (second compound 10 µM, first compound 0.0316 µM) was 104%, the viability, T/C (second compound 10 µM, first compound 0.1 µM) was 111% and the viability, T/C (second compound 10 µM, first compound 0.316 µM) was 102%. For the same compound, the viability, T/C (second compound 10 µM, first compound 1 µM) was 102%, the viability, T/C (second compound 10 µM, first compound 3.16 µM) was 82% and the viability, T/C (second compound 10 µM, first compound 10 µM) was 73.2%.

In the case of `CCc1cc2c(N3CCc4c(cc(Cn5ccnc5)cc4-c4cn(C)nc4C(F)(F)F)C3=O)ccnc2c(OC)n1`, the viability, T/C (compound 0.0316 µM) is reported as 102% (2×) and 107%, the viability, T/C (compound 0.1 µM) is reported as 84.3% and 91.4% and 86.7% and the viability, T/C (compound 0.316 µM) is reported as 88.2% and 90.7% and 92.4%. For the same compound, the viability, T/C (compound 1 µM) was 87.8% and 81.3% and 83.7%, the viability, T/C (compound 3.16 µM) was 76.5% and 75.1% and 70.2% and the viability, T/C (compound 10 µM) was 65.6% and 72.1% and 73%. The IC50 (curve of compound) was over 10 µM.

In the case of `COC1C(OC(N)=O)C(O)C(Oc2ccc3c(O)c(NC(=O)c4ccc(O)c(CC=C(C)C)c4)c(=O)oc3c2C)OC1(C)C` (stereo unspecified), the viability, T/C (compound 0.0316 µM) is reported as 108% [middle of 13 runs], the viability, T/C (compound 0.1 µM) is reported as 106% [middle of 13 runs] and the viability, T/C (compound 0.316 µM) is reported as 106% [middle of 13 runs]. For the same compound, the viability, T/C (compound 1 µM) was 103% [middle of 13 runs], the viability, T/C (compound 3.16 µM) was 101% [middle of 13 runs] and the viability, T/C (compound 10 µM) was 106% [middle of 13 runs]. For the same compound, the IC50 (compound alone, run of 10/31/2023) was over 10 µM.
